Tests used:
[1] = system: HT29 tumor cells; test: In vitro cell proliferation inhibition (CellTiterGlo); assay type: cell-based; details: Homo sapiens, HT-29
Experimental: The ability of compounds to inhibit the proliferation of HT29 tumor cells was measured.
The assay compound was dissolved in 100% DMSO to prepare 10 mM stock solution.
• a) UV light of a biological safety cabin was turned on, and 30 minutes were counted down; • b) In a 37° C. water bath, RPMI1640 medium and trypsin were preheated; • c) After completion of the UV irradiation, the biological safety cabin was opened. The preheated medium, trypsin and phosphate buffered saline (PBS), etc. were wiped with alcohol and placed in the biological safety cabin; • d) HT29 cells were removed from the incubator, and the old medium was removed in biological safety cabin. 10 ml of PBS was added. […] The culture vessel was shaken horizontally so that the trypsin evenly covered the cells at the bottom, and placed in an incubator for 2 minutes; • f) Cell digestion was stopped with complete medium, and the cell suspension was pipetted to homogeneity and counted; • g) According to the result of cell counting, the density of cell suspension was adjusted to 1500 cells per well, and the cell suspension was seeded at 50 μl per well; • h) The stock solution of compounds was serially diluted in DMSO solution, and compounds were added to cell plate using Tecan; • i) The compound-added cell plate and CellTiterGlo were equilibrated at room temperature, and 25 microliters of CellTiterGlo was then added to each well. […]

[2] = In vivo PK study in cynomolgus monkeys; details: male cynomolgus monkeys
Experimental: Male cynomolgus monkeys were used as assay animals. After a single administration, the plasma concentration of the compound was measured and the pharmacokinetic behavior was evaluated.
Five healthy adult male cynomolgus monkeys were selected, wherein 2 animals were in an intravenous injection group, and 3 animals were in an oral group. The vehicle in the intravenous injection group was 5% DMSO+95% (20% HP-β-CD). The compound to be assayed was mixed with an appropriate amount of vehicle for intravenous injection, and dissolved with stirring to prepare a clear solution of 0.4 mg/mL. The clear solution was filtered by a microporous membrane, and then ready for use. The vehicle in the oral group was 5% DMSO+95% (20% HP-β-CD). The compound to be assayed was mixed with the vehicle, and dissolved with stirring to prepare a solution of 0.3 mg/mL. Cynomolgus monkeys were administered 1 mg/kg intravenously or 3 mg/kg orally, and then whole blood was collected for a certain period. Plasma was prepared. The drug concentration was analyzed by LC-MS/MS method, and the pharmacokinetic parameters were calculated by Phoenix WinNonlin software (Pharsight, USA).

[3] = system: human plasma albumin; test: Plasma protein binding (PPB), human plasma; assay type: in vitro ADME; details: ultracentrifugation, 37° C., 4 h
Experimental: (§1) The binding degree of the assay compound to human/mouse/rat/canine/monkey plasma albumin was studied.
(§2) • 1) Matrix preparation: on the day of the assay, plasma was thawed in cold water and centrifuged at 3220 rpm for 5 min to remove all clots. The pH of the resulting plasma was measured and adjusted to 7.4±0.1 using 1% phosphoric acid or 1N sodium hydroxide as needed. • 2) Dilution procedure for the assay compound: the assay compound was dissolved in dimethyl sulfoxide (DMSO) to prepare stock solutions with concentrations of 10 mM and 2 mM, respectively. A 40 μM working solution was prepared by diluting 2 μL of stock solution (2 mM) with 98 μL of DMSO. A 400 μM working solution of the control compound was prepared by diluting 10 μL of stock solution with 240 μL of DMSO. The working solution of the compound (5 μL) was mixed well with a blank matrix (995 μL) at a ratio of 1:200 to prepare a loading matrix.
(§3) • a) An equal volume of 30 μL of loading matrix (n=2) was transferred to a sample collection plate to prepare a time 0 (TO) sample for residue determination. The sample was immediately matched with the corresponding blank buffer to a final volume of 60 μL, and the volume ratio of plasma to buffer in each well was 1:1. […] The mixture was centrifuged at 4000 rpm for 20 min and 100 μL of supernatant from each sample was analyzed by LC-MS/MS.

[4] = system: rat plasma albumin; test: Plasma protein binding (PPB), rat plasma; assay type: in vitro ADME; details: ultracentrifugation, 37° C., 4 h
Experimental: as §1, §2, §3

Cc1cccc(CN2C(=O)c3nc(-c4nc(Nc5ccnn5C)ncc4C)sc3C2(C)C)n1 [WX001]
IC50 [1]: 21 nM
clearance ([2]; cynomolgus monkey, plasma, iv, 1 mg/kg intravenously): 7.9 mL/min/kg
Vd ([2]; cynomolgus monkey, plasma, iv, 1 mg/kg intravenously, read-out: Vdss): 1.19 L/kg
bioavailability ([2]; cynomolgus monkey, plasma, oral, 1 mg/kg intravenously / 3 mg/kg orally, read-out: F % (oral bioavailability)): 41%
half-life ([2]; cynomolgus monkey, plasma, single administration): 2 h
Cmax ([2]; cynomolgus monkey, po, 3 mg/kg orally, plasma): 1250 nM
Oral DNAUC (AUCPO/Dose) ([2]; 3 mg/kg orally): 1995.93 nM · h/mpk
Plasma protein binding rate (unbound %) [3]: 6.1%
Plasma protein binding rate (unbound %) [4]: 3.8%

Reference: patent US20240300975A1, “DIMETHYL-SUBSTITUTED THIAZOLOLACTAM COMPOUND AND USE THEREOF” (D3 Bio (Wuxi) Co., Ltd., priority 2021, published 2024)
